Data set [1] is described as follows: Dog exposure (Cmax and AUC) with oral dosing. Type of data set: in vivo.
The test system of another data set is PS19 mice. The experiment in a line: Immunohistochemistry of hippocampus of PS19 mice. Type of data set: in vivo, mouse. The text has this:
FIG. 12A-12F illustrate reduced phospho-Tau accumulation in transgenic mice treated with AZD0530. FIG. 12A: Representative images of AT8 immunoreactivity in the dentate gyrus (DG) of the hippocampus in 9-month-old PS19 mice after 7 months of treatment with AZD0530 or Vehicle. Scale bar, […]. FIG. 12B: Quantification of AT8-positive area (%) in the dentate gyrus of the hippocampus in 9-month-old PS19 and WT mice after 7 months of treatment. Data are mean±SEM. n=7-10/group, each dot is one mouse. […] FIG. 12C: Representative images of immunofluorescent staining for AT8 in the CA1 of the hippocampus in 9-month-old PS19 and WT mice after 7 months of treatment. Scale bar, […]. FIG. 12D: Quantification of AT8-positive area in the CA1 of the hippocampus in 9-month-old PS19 and WT mice after 7 months of treatment. Data are mean±SEM. n=7-10/group, each dot is one mouse. […] FIG. 12E: Representative images of immunofluorescent staining for PHF1 in the CA1 of the hippocampus in 9-month-old PS19 and WT mice after 7 months of treatment. Scale bar, […]. FIG. 12F: Quantification of PHF1-positive area in the CA1 of the hippocampus in 9-month-old PS19 and WT mice after 7 months of treatment. Data are mean±SEM. n=7-10/group, each dot is one mouse.
FIGS. 13A-13D illustrate that chronic Fyn inhibition prevents glial activation in mutant Tau transgenic mice. FIG. 13A: Representative images of CD68 and Ibal double immunostaining in the CA3 region of the hippocampus from 9-month-old PS19 and WT mice after 7 months of treatment with AZD0530 or Vehicle. Scale bar, 20 μm. FIG. 13B: Quantification of CD68-positive area (%) within Ibal-immuoreative area in the CA3 segment of the hippocampus from 9-month-old PS19 and WT mice after 7 months of treatment. Data are as mean±SEM. n=7-10/group, each dot is one mouse. *p<0.05; One-way ANOVA with Dunnett's multiple comparisons test. FIG. 13C: Representative images of immunofluorescent staining GFAP in the dentate gyrus (DG) of the hippocampus in 9-month-old PS19 and WT mice after 7 months of treatment. Scale bar, 20 μm. FIG. 13D: Quantification of GFAP-positive area (%) in the dentate gyrus of the hippocampus in 9-month-old PS19 and WT mice after 7 months of treatment. n=7-10/group, each dot is one mouse. Data are mean±SEM. *p<0.05; One-way ANOVA with Dunnett's multiple comparisons test.
FIGS. 14A-14B illustrate the finding that loss of presynaptic marker SV2A in P301S Tau transgenic mice is rescued by Fyn inhibition. FIG. 14A: Representative images of immunofluorescent staining for SV2A in the CA3 region of the hippocampus from 9-month-old PS19 and WT mice after 7 months of treatment with AZD0530 or Vehicle. Dashed lines represent the divide between the cell body layer and synaptic region. The cell bodies in the image were used to capture similar ROI from each section. Scale bar, 20 μm. FIG. 14B: Quantification of SV2A-positive area (%) in the CA3 of the hippocampus in 9-month-old PS19 and WT mice after 7 months of treatment. Data are mean±SEM. n=7-10/group, each dot is one mouse.
FIGS. 19A-19D illustrate low magnification survey of gliosis in PS19 mice unaffected by AZD0530. FIG. 19A: Representative images of Ibal immunostaining in the hippocampus in 9-month-old PS19 and WT mice after 7 months of treatment. Scale bar, 100 m. FIG. 19B: Quantification of Ibal-positive area (%) in the hippocampus in 9-month-old PS19 and WT mice collected after 7 months of treatment. Data are mean±SEM. n=7-10/group. One-way ANOVA. FIG. 19C: Representative images of immunofluorescent staining GFAP in the hippocampus in 9-month-old PS19 and WT mice after 7 months of treatment. Scale bar, 100 μm. FIG. 19D: Quantification of GFAP-positive area (%) in the hippocampus in 9-month-old PS19 and WT mice collected after 7 months of treatment. Data are mean±SEM. n=7-10/group. One-way ANOVA.
Immunohistochemistry was performed as previously described (Kaufman et al., 2015, Ann Neurol 77:953-971) with slight modifications. […]

Another data set concerns Src, Fyn, Yes and Lyn. As to conditions: blocking Src, read-out: potency; cited from earlier work.
For a further data set, the system named is solid tumors. As to conditions: single agent, specific oncological indications; cited from earlier work.
The test system of data set [2] is APPswe/PS1ΔE9 transgenic mice. The experiment in a line: Morris water maze in AD transgenic mice.
Method: Spatial learning is plotted as latency to find a hidden platform in a Morris water maze at age 11-12 months. […] Mean±SEM for the indicated numbers of mice per genotype/treatment group.
Memory performance during a 60 sec probe trial, 24 hr after learning, where time spent in the target quadrant was measured. Random chance is 15 sec. Mean±SEM for n=9-14 in each group.
The dosing was on a twice a day schedule by oral gavage and control groups received vehicle. The identity of the active versus vehicle groups and the transgene status was unknown to the researchers handling the mice and collecting the behavioral data. […] The data from the two cohorts were pooled. Different tests were performed at 1-3 weeks (early) or 4-6 weeks (late) time points. Mice were tested in the Morris water maze at both ages, and also in Novel Object Recognition tests at the later time points. After memory testing was complete, the animals were sacrificed without ceasing their drug regimen for histological analysis.
After the learning trials, the mice were tested the subsequent day in a memory test, the 60 second probe trial with the hidden platform removed (FIG. 4). Random chance results in 15 sec occupancy in each quadrant.
Setting [3] is: 9-month-old PS19 mice, 7 months of treatment.

Each structure is given as a SMILES string.

Results on one compound are retold here after US11241434B2, “Compositions and methods for improving cognition in a subject” (Yale University, priority 2013, dated 2022).

For the compound `CN1CCN(CCOc2cc(OC3CCOCC3)c3c(Nc4c(Cl)ccc5c4OCO5)ncnc3c2)CC1` [saracatinib, N-(5-chloro-benzo[d][1,3]dioxol-4-yl)-7-(2-(4-methylpiperazin-1-yl)ethoxy)-5-(tetrahydro-2H-pyran-4-yloxy)quinazolin-4-amine], in data set [1] (dog 2 mg/kg/d), the “human daily dose equivalent” value was 50 mg. In data set [1] (dog 5 mg/kg, saracatinib free base in human), the “human dose of equivalent exposure (Cmax and AUC)” value is on record as 125 mg. For the same compound, the “dose dependence of exposure” value in data set [1] (dog, multiple dosing, 0.5 to 5 mg/kg oral daily dose) is “linear”. Moreover, in the data set on PS19 mice (setting [3]), the “AT8 (phospho-Tau Ser202/Thr205) immunoreactivity in DG and CA1” value is given as “significantly mitigates the increase”; the “CD68 immunoreactivity in Iba1-immunoreactive area of CA3” value was “almost completely prevented the increase”; the “SV2A immunoreactivity in CA3” value is “fully rescued the reduction”; the “astrocytosis (GFAP-immunoreactive area in dentate gyrus)” value was “significantly attenuated”. Also, the “gliosis (Iba1, GFAP) in hippocampus, low magnification survey” value with PS19 mice (setting [3]) is listed as “unaffected”. Moreover, in the data set on PS19 mice (9-month-old PS19 mice, 7 months of treatment, vs Vehicle), the “PHF-1 (phospho-Tau Ser396/Ser404) immunoreactive area in CA1” value is listed as “significant decrease”. The “PY18 Tau levels” value in the data set on PS19 mice (AZD0530-treated PS19 samples) was “no change”. For the same compound, the IC50 with Src, Fyn, Yes and Lyn was 2 to 10 nM. In addition, the “benefit in Phase II studies” value in the data set with solid tumors is reported as “limited benefit”. In addition, in data set [2] (APPswe/PS1ΔE9 mice, 5 mg/kg/d b.i.d. oral gavage, 4-5 weeks), the “latency to hidden platform (learning trials)” value is on record as “eliminated the transgenic deficit”. In data set [2] (APPswe/PS1ΔE9 mice, 5 mg/kg/d, 5 weeks), the “probe trial, preference for target quadrant” value was “same strong preference for the target quadrant as did WT mice”. Besides, the “learning and memory tests” value in data set [2] (shorter treatment duration or lesser doses) is on record as “did not have significant effects”. Also, in data set [2] (wild type mice with or without 5 weeks saracatinib, 60 second trial, chance 15 sec), the “probe trial, time in target quadrant” value is approximately 30 s. The “latency to hidden platform (learning trials)” value in data set [2] (wild type mice, 5 mg/kg/d) is “not altered”.
